Measured values: US11337976B2 (Plexxikon Inc., priority 2011, dated 2022)
Like-named read-outs stand apart in the source and are kept apart here.

Experiments:
[1] = system: A375 melanoma cells (B-Raf V600E mutation); assay: A375 (A375_P-ERK) cell activity / cell growth inhibition assay; assay type: cell-based, human; details: A375 cells (text: A375_P-ERK)
[2] = system: COLO205 colon adenocarcinoma cells (B-Raf V600E mutation); assay: COLO205 cell growth inhibition assay (ATPlite); assay type: cell-based, human
Procedure: Compounds are assessed in a variety of cell based assays. For example human cell lines with B-RafV600E mutation (A375 melanoma, SKMEL3 melanoma, and COLO205 colon adenocarcinoma), as well as tumorigenic cell lines with wild-type B-RAF (SW620 colon adenocarcinoma) or with Ras mutations (SKMEL2 melanoma and IPC298 melanoma).
On day 1, cells are counted, then centrifuged in a conical tube for 5 minutes at 1000 rpm.
On day 2, compound at a maximum concentration of 5 mM is serially diluted 1:3 (e.g. 10 μL with 30 μL dimethyl sulfoxide) for a total of 8 point titration with DMSO as a control. A 1 μL aliquot of each dilution point and control is added to 249 μL growth media and 50 μL is added to a well containing cells, providing 10 μM compound at the maximum concentration point. The cells are incubated for 3 days at 37° C. in 5% CO2.
ATPlite is added 25 μL to each well, shake for 2 minutes, and the cells are incubated at room temperature for 10 minutes, then luminescence is read on Safire reader. The measured luminescence correlates directly with cell number, such that the reading as a function of compound concentration is used to determine the IC50 value.

B-Raf V600E = B-Raf V600E (Homo sapiens (Human), UniProt P15056, V600E); assay: B-Raf V600E kinase activity biochemical assay (AlphaScreen, biotin-MEK1 substrate); details: 100 μM ATP
Procedure: Assays for biochemical and cell based activity are known in the art, for example, as described in PCT publication WO 2007/002433, the disclosure of which is hereby incorporated by reference as it relates to such assays. For example, the biochemical activity IC50 values are determined with respect to inhibition of B-Raf V600E kinase activity or p-Erk kinase activity, where inhibition of phosphorylation of a peptide substrate is measured as a function of compound concentration. Compounds to be tested are diluted in dimethyl sulfoxide to a concentration of 0.1 mM. These are serially diluted 15 μL into 30 μL of dimethyl sulfoxide seven times in 96 well plates for a total of 8 dilution points, and for each dilution point 1 μL is added to a well of an assay plate. Plates are prepared such that each well in a 384 well plate contains 1 μL of compound in 10 μL volume with 0.1 ng Raf enzyme (i.e. any of B-Raf, c-Raf-1 or B-Raf V600E, Upstate Biotechnology or preparead by methods known to one of skill in the art), 50 mM HEPES, pH 7.0, 50 mM NaCl, 2 mM MgCl2, 1 mM MnCl2, 0.01% Tween-20, 1 mM DTT, and 100 nM biotin-MEK1 as substrate. The reaction is started with addition of 10 μL of 200 μM ATP (i.e. final 100 μM ATP). […] The plates are incubated for 3 hours at room temperature and read on Envision reader (Perkin Elmer). […]

[3] = system: IPC-298 cells, phosphorylated ERK; assay: IPC-298_P-ERK cell activation assay (phosphorylated ERK, AlphaScreen); assay type: cell-based, human; details: P-ERK activation, one hour treatment
Procedure: B9 is a squamous cell carcinoma cell line expressing activated HRAS that was isolated from a DMBA/TPA-induced mouse model of skin carcinogenesis (Stoler, et al. The Journal of Cell Biology, 1993, 122(5), 1103-17). IPC-298 is a human melanoma cell line that expresses activated NRAS (Aubert, et al. International Journal of Cancer, 1993, 54(5), 784-92). To determine whether compounds induce phosphorylated ERK and MEK, cells are plated in a 96-well dish and treated with an 8-point titration of compound for one hour at 37° C. The media is then removed and the cells are incubated with lysis buffer containing protease and phosphatase inhibitors. Phosphorylated ERK and MEK in the resulting lysates is detected using AlphaScreen™ technology. To detect phosphorylated ERK, cell lysates are incubated with streptavidin-coated donor beads, anti-mouse IgG acceptor beads, a biotinylated anti-ERK1/2 rabbit antibody, and a mouse antibody that recognizes ERK1/2 only when it is phosphorylated on Thr202 and Tyr204. […] When ERK is phosphorylated, both antibodies can bind the same protein, bringing the donor and acceptor beads into close proximity, producing a signal that can be measured at 580 nm. MEK phosphorylation is detected using a similar approach, only with antibodies directed against total MEK1/2 and MEK1/2 that is phosphorylated at Ser217 and Ser221.

[4] = Homo sapiens, A-375, compounds known in the art
[5] = Homo sapiens, COLO 205, compounds known in the art

B-Raf V600E, sequence (P15056 whole entry V600E): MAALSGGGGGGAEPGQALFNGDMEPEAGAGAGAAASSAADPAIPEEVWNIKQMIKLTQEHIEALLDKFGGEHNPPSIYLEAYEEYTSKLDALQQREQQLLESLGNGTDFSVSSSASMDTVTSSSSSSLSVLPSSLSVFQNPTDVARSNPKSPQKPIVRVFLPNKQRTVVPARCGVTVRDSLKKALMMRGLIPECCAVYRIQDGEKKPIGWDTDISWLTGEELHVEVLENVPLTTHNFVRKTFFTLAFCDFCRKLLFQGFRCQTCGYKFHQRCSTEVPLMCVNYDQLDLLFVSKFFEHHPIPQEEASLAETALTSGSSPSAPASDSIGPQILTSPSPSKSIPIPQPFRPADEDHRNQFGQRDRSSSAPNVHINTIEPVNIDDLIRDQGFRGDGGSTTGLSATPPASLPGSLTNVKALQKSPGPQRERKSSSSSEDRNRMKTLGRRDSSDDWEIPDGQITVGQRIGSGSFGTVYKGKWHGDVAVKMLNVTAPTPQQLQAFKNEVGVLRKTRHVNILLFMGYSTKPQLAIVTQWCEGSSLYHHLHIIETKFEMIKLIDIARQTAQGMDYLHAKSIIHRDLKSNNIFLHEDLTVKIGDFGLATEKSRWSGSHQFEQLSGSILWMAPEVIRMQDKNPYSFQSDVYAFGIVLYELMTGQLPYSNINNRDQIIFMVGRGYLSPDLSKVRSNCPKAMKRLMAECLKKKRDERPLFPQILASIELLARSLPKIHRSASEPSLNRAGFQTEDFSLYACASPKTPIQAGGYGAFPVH

| SMILES | IC50 ([1]; Homo sapiens, A-375) [µM] | also measured |
| --- | --- | --- |
| COc1ncc(-c2cnc3[nH]cc(C(=O)c4c(F)ccc(NS(=O)(=O)c5cc(F)ccc5F)c4F)c3c2)cn1 |  | IC50 [1, 4]: < 0.5 µM; IC50 [2, 5]: < 1 µM |
| COc1ncc(-c2cnc3[nH]cc(C(=O)c4c(F)ccc(NS(=O)(=O)c5ccccc5F)c4F)c3c2)cn1 |  | IC50 [1, 4]: < 0.5 µM; IC50 [2, 5]: < 1 µM |
| CCCS(=O)(=O)Nc1ccc(F)c(C(=O)c2c[nH]c3ncc(Cl)cc23)c1F |  | IC50 [1, 4]: < 0.8 µM; IC50 [2, 5]: < 1 µM |
| CCN(C)S(=O)(=O)Nc1ccc(F)c(C(=O)c2c[nH]c3ncc(-c4ccc(Cl)cc4)cc23)c1F [P-0013] | < 1 | IC50 (B-Raf V600E): < 0.1 µM |
| O=C(c1c(F)ccc(NS(=O)(=O)N2CCCC2)c1F)c1c[nH]c2ncc(I)cc12 [P-0024] |  | EC50 [3]: > 10 µM; IC50 [1]: < 1 µM; IC50 [2]: > 1 µM |
| CN(C)S(=O)(=O)Nc1cccc(C(=O)c2c[nH]c3ncc(-c4ccc(C#N)cc4)cc23)c1F [P-0027] | < 1 | IC50 ([2]; Homo sapiens, COLO 205): < 1 µM |
| COc1ccnc(-c2cnc3[nH]cc(C(=O)c4cccc(NS(=O)(=O)N5CCCC5)c4F)c3c2)n1 [P-0325, N-[2-fluoro-3-[5-(4-methoxypyrimidin-2-yl)-1H-pyrrolo[2,3-b]pyridine-3-carbonyl]phenyl]pyrrolidine-1-sulfonamide] | < 1 |  |
| Cc1ccnc(-c2cnc3[nH]cc(C(=O)c4cccc(NS(=O)(=O)N5CCCC5)c4F)c3c2)n1 [P-0326, N-[2-fluoro-3-[5-(4-methylpyrimidin-2-yl)-1H-pyrrolo[2,3-b]pyridine-3-carbonyl]phenyl]pyrrolidine-1-sulfonamide] | > 1 |  |
| O=C(c1cccc(NS(=O)(=O)N2CC[C@@H](F)C2)c1F)c1c[nH]c2ncc(-c3cnc(C4CC4)nc3)cc12 [P-0327, (3R)—N-[3-[5-(2-cyclopropylpyrimidin-5-yl)-1H-pyrrolo[2,3-b]pyridine-3-carbonyl]-2-fluoro-phenyl]-3-fluoro-pyrrolidine-1-sulfonamide] | < 1 |  |
| CCC(C)S(=O)(=O)Nc1ccc(F)c(C(=O)c2c[nH]c3ncc(-c4ccc(Cl)cc4)cc23)c1F (centres unmarked) [P-0337, N-[3-[5-(4-chlorophenyl)-1H-pyrrolo[2,3-b]pyridine-3-carbonyl]-2,4-difluoro-phenyl]butane-2-sulfonamide] | > 1 |  |
| O=C(c1c(F)ccc(NS(=O)(=O)N2CC[C@@H](F)C2)c1F)c1c[nH]c2ncc(-c3cnc(C4CC4)nc3)cc12 [P-0338, (3R)—N-[3-[5-(2-cyclopropylpyrimidin-5-yl)-1H-pyrrolo[2,3-b]pyridine-3-carbonyl]-2,4-difluoro-phenyl]-3-fluoro-pyrrolidine-1-sulfonamide] | < 1 |  |
| O=C(c1c(F)ccc(NS(=O)(=O)N2CCC(F)C2)c1F)c1c[nH]c2ncc(-c3cnc(C4CC4)nc3)cc12 (centres unmarked) [P-0339, N-[3-[5-(2-cyclopropylpyrimidin-5-yl)-1H-pyrrolo[2,3-b]pyridine-3-carbonyl]-2,4-difluoro-phenyl]-3-fluoro-pyrrolidine-1-sulfonamide] | < 1 |  |

Further lines, with some results ahead:

| IC50 ([1]; Homo sapiens, A-375) [µM] | SMILES | also measured |
| --- | --- | --- |
| < 1 | CN1CCN(c2cccc(-c3cnc4[nH]cc(C(=O)c5cccc(NS(=O)(=O)N6CCCC6)c5F)c4c3)n2)CC1 [P-0324, N-[2-fluoro-3-[5-[6-(4-methylpiperazin-1-yl)-2-pyridyl]-1H-pyrrolo[2,3-b]pyridine-3-carbonyl]phenyl]pyrrolidine-1-sulfonamide] |  |
| > 1 | CNS(=O)(=O)Nc1ccc(F)c(C(=O)c2c[nH]c3ncc(-c4cnc(C5CC5)nc4)cc23)c1F [P-0334, [5-(2-cyclopropylpyrimidin-5-yl)-1H-pyrrolo[2,3-b]pyridin-3-yl]-[2,6-difluoro-3-(methylsulfamoylamino)phenyl]methanone] |  |
| < 1 | CCNS(=O)(=O)Nc1ccc(F)c(C(=O)c2c[nH]c3ncc(-c4cnc(C5CC5)nc4)cc23)c1F [P-0335, [5-(2-cyclopropylpyrimidin-5-yl)-1H-pyrrolo[2,3-b]pyridin-3-yl]-[3-(ethylsulfamoylamino)-2,6-difluoro-phenyl]methanone] |  |
| < 1 | CN(CC(F)(F)F)S(=O)(=O)Nc1ccc(F)c(C(=O)c2c[nH]c3ncc(-c4cnc(C5CC5)nc4)cc23)c1F [P-0340, 5-(2-cyclopropylpyrimidin-5-yl)-3-[2,6-difluoro-3-[[methyl(2,2,2-trifluoroethyl)sulfamoyl]amino]benzoyl]-1H-pyrrolo[2,3-b]pyridine] |  |
